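Method: 48-hour compound exposure of cells in 96-well plates, five concentrations, linear interpolation of endpoints. At the GI50, growth is halved.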 Active and inactive are the calls of the source. Cut-off read from the data, not from the text of the source: active = GI50 up to about 1.1 µM and inactive = higher.
Key:
Assay in all cases: growth of human tumour cells (NCI), 48 h
[1] = system: ACHN
[2] = system: COLO 205
[3] = system: HCC 2998
[4] = system: HL-60
[5] = system: HOP-62
[6] = system: Hs-578T
[7] = system: NCI/ADR-RES
[8] = system: OVCAR-4
[9] = system: SF-268
[10] = system: SF-295
[11] = system: SF-539
[12] = system: SK-OV-3
[13] = system: SN12C
[14] = system: SNB-19
[15] = system: SNB-75
[16] = system: SR
[17] = system: T47D
[18] = system: TK-10
[19] = system: UACC-257
[20] = system: UO-31

Structure (SMILES) | GI50 [1] | GI50 [2] | GI50 [3] | GI50 [4] | GI50 [5] | GI50 [6] | GI50 [7] | GI50 [8] | GI50 [9] | GI50 [10] | GI50 [11] | GI50 [12] | GI50 [13] | GI50 [14] | GI50 [15] | GI50 [16] | GI50 [17] | GI50 [18] | GI50 [19] | GI50 [20]
N/N=C(/C=C1\C(=O)Nc2ccccc21)c1ccccc1 | 45.1 µM (inactive) | 19.9 µM (inactive) | 20 µM (inactive) | 3.8 µM (inactive) | 32.9 µM (inactive) | 15.4 µM (inactive) | 18.2 µM (inactive) | 58.7 µM (inactive) | 55.6 µM (inactive) | 21.4 µM (inactive) | 18.7 µM (inactive) | 32.1 µM (inactive) | 26.3 µM (inactive) | 27.6 µM (inactive) | 18.7 µM (inactive) | 40.8 µM (inactive) | 66.4 µM (inactive) | 42.8 µM (inactive) | 36.1 µM (inactive) | 32.2 µM (inactive)
C=CCNC1=C2C[C@@H](C)C[C@@H](OC)[C@@H](OC(=O)CCCN)[C@H](C)/C=C(\C)[C@@H](OC(N)=O)[C@H](OC)/C=C\C=C(/C)C(=O)NC(=CC1=O)C2=O | 18.8 µM (inactive) | 3.54 µM (inactive) | 15.5 µM (inactive) | 4.43 µM (inactive) | 6.24 µM (inactive) | 20.9 µM (inactive) | > 100 µM (inactive) | 20.6 µM (inactive) | 13.2 µM (inactive) | 15.9 µM (inactive) | 12.6 µM (inactive) | 14.6 µM (inactive) | 17.4 µM (inactive) | 15.8 µM (inactive) | 10.4 µM (inactive) | 6.59 µM (inactive) | 27.4 µM (inactive) | 16.7 µM (inactive) | 15.1 µM (inactive) | 18.4 µM (inactive)
CCN(CC)c1ccc2cc(C(=O)NCc3ccccc3)c(=N)oc2c1 | 5.43 µM (inactive) | 16 µM (inactive) | 40.4 µM (inactive) | 39.1 µM (inactive) | 59.8 µM (inactive) | > 37.6 µM (inactive) | 0.912 µM (active) | 16.9 µM (inactive) | > 79.6 µM (inactive) | 27.5 µM (inactive) | 46.3 µM (inactive) | 56.8 µM (inactive) | > 100 µM (inactive) | 54.3 µM (inactive) | 37.3 µM (inactive) | > 42.6 µM (inactive) | 4.33 µM (inactive) | 14.4 µM (inactive) | 20.4 µM (inactive) | > 26.6 µM (inactive)
COc1cccc2c1C(=O)C1=C(C2=O)C(O)CC(C)(C)O1 (stereo not given) | 36.1 µM (inactive) | 23.5 µM (inactive) | 33.6 µM (inactive) | 11.7 µM (inactive) | > 100 µM (inactive) | > 100 µM (inactive) | 28.7 µM (inactive) | 19.3 µM (inactive) | 55.5 µM (inactive) | 70.3 µM (inactive) | 37.9 µM (inactive) | > 100 µM (inactive) | 32.5 µM (inactive) | 76.7 µM (inactive) | > 100 µM (inactive) | 16.3 µM (inactive) | 49.8 µM (inactive) | > 100 µM (inactive) | 22.4 µM (inactive) | 58.9 µM (inactive)
Cn1ccnc1Sc1ccc(/C=N/c2ccc3nc(SCC(=O)NC4CCCCC4)sc3c2)cc1[N+](=O)[O-] | 16.6 µM (inactive) | > 100 µM (inactive) | > 100 µM (inactive) | > 100 µM (inactive) | 28.4 µM (inactive) | 18.6 µM (inactive) | > 100 µM (inactive) | > 100 µM (inactive) | 22.6 µM (inactive) | 13.2 µM (inactive) | 5.68 µM (inactive) | 20.2 µM (inactive) | > 100 µM (inactive) | 13.7 µM (inactive) | 2.7 µM (inactive) | > 100 µM (inactive) | > 100 µM (inactive) | 15.6 µM (inactive) | > 100 µM (inactive) | > 100 µM (inactive)
CC1=[N+](C)CCCN1C | > 100 µM (inactive) | > 100 µM (inactive) | > 100 µM (inactive) | > 100 µM (inactive) | > 100 µM (inactive) | > 100 µM (inactive) | > 100 µM (inactive) | > 100 µM (inactive) | > 100 µM (inactive) | > 100 µM (inactive) | > 100 µM (inactive) | > 100 µM (inactive) | > 100 µM (inactive) | > 100 µM (inactive) | > 100 µM (inactive) | > 100 µM (inactive) | > 100 µM (inactive) | > 100 µM (inactive) | > 100 µM (inactive) | > 100 µM (inactive)
